Patent publication US8431356B2, “Fluorescence resonance energy transfer assays for sarco/endoplasmic reticulum calcium atpase and phospholamban” (Regents of the University of Minnesota, priority 2009, dated 2013)

Legend:
[1] = system: LNCaP prostate cancer cells; conditions: administration of thapsigargin; cited from earlier work
[2] = biological target: T1, SERCA (Oryctolagus cuniculus, UniProt P04191); test: Functional potency of PLB variants by ATPase assay (reconstituted SERCA/PLB); assay type: biochemical; conditions: shift in pCa for 50% activation of SERCA, 5 PLB/SERCA, mean±SEM
T1 construct: from tissue
T1 sequence (P04191 1-994 isoform P04191-2): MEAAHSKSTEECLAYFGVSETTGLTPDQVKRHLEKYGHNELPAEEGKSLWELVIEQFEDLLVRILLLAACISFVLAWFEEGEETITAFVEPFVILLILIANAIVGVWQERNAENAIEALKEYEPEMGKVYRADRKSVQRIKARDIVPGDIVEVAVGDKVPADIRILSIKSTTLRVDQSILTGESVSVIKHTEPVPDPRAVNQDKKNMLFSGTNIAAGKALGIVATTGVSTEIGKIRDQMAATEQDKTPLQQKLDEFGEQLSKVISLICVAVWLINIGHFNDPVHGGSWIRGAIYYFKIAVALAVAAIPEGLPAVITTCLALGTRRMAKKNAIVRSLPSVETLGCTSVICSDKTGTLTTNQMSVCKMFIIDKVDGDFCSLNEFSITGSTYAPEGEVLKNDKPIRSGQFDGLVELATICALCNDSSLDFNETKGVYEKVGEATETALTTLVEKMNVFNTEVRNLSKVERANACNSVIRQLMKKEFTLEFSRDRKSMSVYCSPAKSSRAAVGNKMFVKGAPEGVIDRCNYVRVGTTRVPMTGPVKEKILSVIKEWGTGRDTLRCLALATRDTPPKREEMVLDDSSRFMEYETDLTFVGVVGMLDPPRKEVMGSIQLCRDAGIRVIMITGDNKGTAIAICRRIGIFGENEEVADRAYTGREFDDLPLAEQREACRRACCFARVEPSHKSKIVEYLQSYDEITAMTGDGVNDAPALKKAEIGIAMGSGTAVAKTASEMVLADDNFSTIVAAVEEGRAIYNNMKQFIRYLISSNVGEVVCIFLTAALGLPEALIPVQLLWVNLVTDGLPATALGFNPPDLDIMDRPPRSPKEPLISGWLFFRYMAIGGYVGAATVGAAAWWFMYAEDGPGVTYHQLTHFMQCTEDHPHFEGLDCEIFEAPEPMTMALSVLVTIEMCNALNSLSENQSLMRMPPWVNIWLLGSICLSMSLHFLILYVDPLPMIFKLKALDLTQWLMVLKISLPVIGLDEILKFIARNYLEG
Excerpt: (§1) For intermolecular FRET, IAEDANS-SERCA was reconstituted with DABCYL-PLB essentially as described previously (see Reddy et al., (1999) J. Biol. Chem. 274:7649-7655; Reddy et al., (1995) J. Biol. Chem. 270:9390-9397; Reddy et al., (1996) J. Biol. Chem. 271:14964-14970) but adapted to modify the SERCA membrane concentration (molar ratio, SERCA/1000 lipids) and PLB-to-SERCA ratio (molar ratio PLB/SERCA). The desired amount of DABCYL-PLB in methanol and lipids (DOPC and DOPE, 4:1 weight ratio in chloroform) were gently mixed and dried over nitrogen gas to create a thin film. Residual solvent was removed under vacuum and desiccant overnight. Lipids and peptides were solubilized in reconstitution buffer (5 mM MgCl2, 0.1M KCl, 10% glycerol, 20 mM MOPS, pH 7.0) by vortexing thoroughly, followed by mild sonication for 30 seconds to form unilamellar vesicles. C12E8 (2 mg/mg of lipid) was added to the tube. Detergent was removed over a 3 hour period using Biobeads SM2 (25 mg/mg of C12E8). FRET was measured immediately following reconstitution. Samples were frozen until gel electrophoresis.
(§2) ATPase activity was measured using an NADH-linked, enzyme-coupled microtiter plate assay (200 μL/well) as described in Karim et al., (2000) J. Biol. Chem. 276, 38814-9 and Reddy et al., (2003) Biochemistry 42, 4585-92. [Ca2+] was controlled by Ca/EGTA buffering by the method described in Fabiato et al., (1979) J. Physiol. (Paris) 75:463-505. The assays were detected at 340 nm on a Spectramax Plus microplate spectrophotometer (Molecular Devices) at 25° C. in the presence of ionophore A23187 to dissipate the Ca gradient building up across the membranes due to ATPase activity. The data were plotted (V vs pCa) and fitted by the Hill equation: […]
where V is the initial ATPase rate and n is the Hill coefficient. Data were normalized to the maximal rate, Vmax, which was obtained from the fit, and replotted to determine the shift in pKCa.
(§3) Functional potency was measured by ATPase assay as ΔpKCa, which stands for the shift in pCa value required for 50% activation of SERCA, at a ratio of 5 PLB/SERCA. FRET potency was measured as E(5), the energy transfer efficiency found at a ratio of 5 PLB/SERCA (N=4-6, mean±SEM).

[3] = biological target: T1, SERCA; test: FRET potency of PLB variants, IAEDANS-SERCA/DABCYL-PLB; assay type: binding; conditions: energy transfer efficiency at 5 PLB/SERCA, mean±SEM
Excerpt: as §1
(§4) The plates were read at 25° C. using a Gemini EM fluorescence microplate reader, with bottom excitation at 350 nm (6 flashes). The spectra were obtained with 10 nm resolution between 420 and 600 nm (PMT sensitivity set to High). Total read time per plate was estimated to be 20 minutes.
The free calcium concentration, [Ca^2+], was controlled by Ca/EGTA buffering, calculated by the method disclosed in Fabiato et al., (1979) J. Physiol. (Paris) 75:463-505. Measurements were conducted in low-Ca (pCa 6.5) buffer (50 mM KCl, 5 mM MgCl2, 0.5 mM EGTA, 210 μM CaCl2, 50 mM MOPS, pH 7.0), where the inhibitory effect of PLB was maximal.
(§5) The fluorescence resonance energy transfer efficiency (E) was calculated from the fractional decrease of steady-state emission of the donor (FD) due to the presence of the acceptor (FDA):
as §3

[4] = system: SERCA-PLB complex; test: Competition of LOF PLB mutants with acceptor-labeled active PLB, FRET; assay type: binding; conditions: 5 moles each per mole SERCA
Protocol: as §4, §5
(§6) The competition of WT-PLB and PLB derivatives was assessed by ATPase activity (e.g., Example 11) and FRET assays (e.g., Example 8). A reconstituted sample containing 5 moles of acceptor-labeled active PLB (WT or I40A) and 5 moles of an unlabeled loss-of-function (LOF) mutant (L31A or S16E) per mole of SERCA was compared with a control, a reconstituted sample with 5 moles of an active PLB (WT or I40A) per mole of SERCA. Competition was measured as the fractional decrease in ΔpKCa or FRET efficiency E, due to the presence of the LOF mutant (N=3-6, mean±SEM).

[5] = system: SERCA-PLB complex; test: Competition of LOF PLB mutants with active PLB, ATPase activity; assay type: biochemical; conditions: 5 moles each per mole SERCA
Protocol: as §2, §6

[6] = competitor vs acceptor-labeled I40A PLB
[7] = competitor vs acceptor-labeled WT PLB

| Compound | growth of LNCaP prostate cancer cells in mice [1] | Functional potency (ΔpKCa) [2] | FRET potency, E(5) [3] | FRET relief (fractional decrease in FRET efficiency E) [4, 6] | FRET relief (fractional decrease in FRET efficiency E) [4, 7] | Functional relief (fractional decrease in ΔpKCa) ([5]; competitor vs I40A PLB) | Functional relief (fractional decrease in ΔpKCa) ([5]; competitor vs WT PLB) |
| --- | --- | --- | --- | --- | --- | --- | --- |
| C/C=C(/C)C(=O)O[C@H]1C(C)=C2[C@H]([C@@H]1OC(=O)CCCCCCC)[C@@](C)(OC(C)=O)C[C@H](OC(=O)CCC)[C@@]1(O)[C@H]2OC(=O)[C@@]1(C)O [thapsigargin] | inhibited |  |  |  |  |  |  |
| I40A: PLB derivative, isoleucine to alanine at position 40; monomeric, superinhibitory gain-of-function mutant (MEKVQYLTRSAIRRASTIEMPQQARQKLQNLFINFCLILACLLLICIIVMLL; UniProt P26678 1-52, looked up, variant I40A) |  | 0.48 ± 0.03 | 0.69 ± 0.03 |  |  |  |  |
| L31A: PLB derivative, leucine to alanine at position 31; loss-of-function (LOF) mutant (MEKVQYLTRSAIRRASTIEMPQQARQKLQNAFINFCLILICLLLICIIVMLL; UniProt P26678 1-52, looked up, variant L31A) |  | 0.05 ± 0.01 | 0.45 ± 0.03 | 0.18 ± 0.12 | 0.37 ± 0.06 | 0.47 ± 0.06 | 0.79 ± 0.04 |
| S16E: PLB derivative, serine to glutamate at position 16; loss-of-function (LOF) mutant (MEKVQYLTRSAIRRAETIEMPQQARQKLQNLFINFCLILICLLLICIIVMLL; UniProt P26678 1-52, looked up, variant S16E) |  | 0.07 ± 0.02 | 0.69 ± 0.02 | 0.15 ± 0.08 | 0.27 ± 0.10 | 0.40 ± 0.03 | 0.83 ± 0.05 |
| WT: wild-type phospholamban (PLB), made by solid-phase peptide synthesis |  | 0.18 ± 0.02 | 0.60 ± 0.03 |  |  |  |  |
